The text below walks through data of US20210253626A1, “PRODRUGS OF FULVESTRANT” (KASHIV BIOSCIENCES, LLC, priority 2018, published 2021).

Data set [1] can be described thus: Kinetic solubility (Solubility Test Procedure I). The following applies: phosphate buffer, 25 °C, pH 7.4, aqueous buffer, kinetic from dmso stock.
Protocol: Solubility Test Procedure I:
A 50 mmol stock solution for each test compound was prepared using dimethyl sulfoxide. From this stock solution, a working solution of 1 mmol was prepared by diluting with dimethyl sulfoxide. The working solution of 1 mmol was then serially diluted using dimethyl sulfoxide. Then, 5-20 μl of stock solution is added to 1 ml of phosphate buffer solution of pH 7.4. The solution was then stirred for 4 h at 25° C. in order to reach equilibrium. After this incubation period, the solution was filtered using 0.45 micron PVDF injector filters to remove the insoluble fraction of the compound and subsequently filtrate is taken for quantification using UV Detector. The concentration of test sample was calculated using the linearity/calibration curve.
Data set [2] can be described thus: Thermodynamic solubility (Solubility Test Procedure II). The following applies: thermodynamic from solid.
Protocol: Solubility Test Procedure II:
Stock solutions of the test compounds and fulvestrant were prepared in phosphate buffered saline (PBS) pH 7.4 and sodium acetate buffer pH 4.0, which was incubated for 24 h at room temperature with constant mixing at 100 rpm in the same tube. After incubation, the tubes were centrifuged for 20 min. at 10000 rpm. Later 200 μL of sample was taken and filtered. The filtrate was analysed by HPLC-UV against 0.0012 mg/ml, 0.037 mg/mL, 0.3 mg/ml, 0.1 mg/ml and 1 mg/ml of dimethylsulfoxide (DMSO) stock.
Solubility (μg/ml)=[Peak area of sample/Peak area of standard]×Concentration of standard % Aqueous solubility: [Test solubility (μg/ml)/incubation concentration (μg/ml)]×100

Values after ≈ are worked out from the molar mass of the structure shown.

A word on the solubility: it is the dissolved amount per volume that the medium holds. A lower solubility goes with a poorly soluble substance. For orientation: solubility (thermodynamic) means solubility found after equilibrating the solid with the medium. `C[C@]12CC[C@@H]3c4ccc(O)cc4C[C@@H](CCCCCCCCC[S+]([O-])CCCC(F)(F)C(F)(F)F)[C@H]3[C@@H]1CC[C@@H]2O` (stereo partly drawn) [Fulvestrant] had a solubility at 4 h in data set [1] of 5 nM (≈ 3.03 ng/mL). Moreover, the thermodynamic solubility at 24 h in data set [2] (phosphate buffered saline (PBS), pH 7.4, aqueous buffer) is 1.2 µg/mL (≈ 1.98 µM); in data set [2] (sodium acetate buffer, pH 4, aqueous buffer), 2.9 µg/mL (≈ 4.78 µM).
